Test results published in patent US20230026163A1, “ANTICANCER COMPOUND AND MEDICAL USE THEREOF” (ASCENTAWITS PHARMACEUTICALS, LTD., priority 2019, published 2023).
pIC50: −log10 of the molar value.

Legend:
P-glycoprotein = P-glycoprotein (Homo sapiens, UniProt P08183); assay: in vitro
Method: MDCKII-MDR1 cells were incubated in cell culture flasks. The incubator was set at 37° C., 5% CO2, and a guaranteed relative humidity of 95%. When the cells reached 70 to 90% confluence, the cells may be seeded to transwells.
50 μL of the cell suspensions were added to the apical chambers of each well of the 96-well transwells at a final seeding density of 5.45×10^5 cells/cm^2.
MDCKII-MDR1 cells may be fully confluent and differentiated after 4 to 8 days of incubation. At this time, the cells may be applied to penetration test. The monolayer membrane resistance was measured with a resistance meter (Millipore), and the resistance per well was recorded. After the test, the transwells were returned to the incubator.
The transwells with MDCKII-MDR1 cells were taken from the incubator. The cell monolayers were rinsed twice with buffer and incubated at 37° C. for 30 minutes.
The rate of the compounds from an apical end to a basolateral end was determined. 75 μL of the buffer containing the test sample was added to each well of the apical chambers (apical end), and 235 μL of the buffer was added to each well of the basolateral chambers (basolateral end).
The rate of the compounds transporting from the basolateral end to the apical end was determined. 75 μL of the buffer was added to the apical chambers (apical end), and 235 μL of the buffer containing the test sample was added to the basolateral chamber (basolateral end).
After the apical chambers and the basolateral chambers were combined respectively, the transwells were incubated at 37° C. for 2 hours.
After incubation, 50 μL of the sample from each well of the apical chambers and the basolateral chambers of the transwells was transferred to new sample tubes respectively. 200 μL of acetonitrile (100 nM of Alprazolam, 200 nM of Labetalol, 200 nM of caffeine, and 2 μM of Ketoprofen) as an internal standard was added to the sample tubes, vortexed for 10 minutes, and centrifuged at 3220 g for 30 minutes. 100 μL of the supernatant was taken and diluted with an equal volume of water for LC-MS/MS analysis. Each sample was incubated in triplicate.
Peak-areas were calculated from ion chromatography results. The apparent permeability coefficient (Papp, unit: cm/s×10-6) of the compounds was calculated by the following formula.
In the formula, VA was the volume of the solution at the acceptor end (Ap→B1 was 0.235 mL, and B1→Ap was 0.075 mL), Area was the membrane area (0.143 cm^2) of 96-well transwell, time was the incubation time (unit: s), [drug]acceptor referred to the drug concentration of the acceptor end after incubation, and [drug]initial,donor referred to the initial concentration of the donor end before incubation.
Efflux ratio was calculated with the following formula.
In the formula, Papp(B_A) was the apparent permeability coefficient from the basolateral end to the apical end, and Papp(A-B) was the apparent permeability coefficient from the apical end to the basolateral end.
The recovery rate was calculated with the following formula.
In the formula, VA was the solution volume of the acceptor end (unit: mL), VD was the solution volume of the donor end (unit: mL), [drug]acceptor referred to the drug concentration of the acceptor end after incubation, and [drug]initial,donor referred to the initial concentration of the donor end before incubation.

H460 = assay: Cytotoxicity on cell lines of different species: H460; format: cell-based; details: NCI-H460, 72 h; H460, Human; exposure time: 3 days
[1] = test system: GA6201 tumor of HuPrime® model; assay: PDX model, subcutaneously transplanted human gastric cancer; format: in vivo, BALB/c nude mice; details: for Tumor volume: ifosfamide 60 mg/kg i.p., compound 01 5-50 mg/kg
Method: BALB/c nude mice were subcutaneously inoculated with GA6201 tumor of HuPrime® model to establish a subcutaneously transplanted tumor model of human gastric cancer. The experiment was divided into a vehicle control group 1 with normal saline (pH 7.0-7.6), a control group 2 with ifosfamide (60 mg/kg), and an Experimental group (Exp. group) with compound 01 (5-50 mg/kg), and 5 mice per group.
The Exp. group with compound 01 (5-50 mg/kg) was administered by intraperitoneal injection for 5 consecutive days and stopped for 2 days a week, and administered for 2 weeks. Then, the dose was changed to 10 mg/kg by intraperitoneal injection, administered daily for 4 days. After that, the dose and administration method were changed. The dose was 20 mg/kg by tail vein injection for 1 day. After 10 days of drug withdrawal, the dose was changed again. The dose was 50 mg/kg by tail vein injection, once a week, for 2 weeks, and one week of observation. […] The safety was evaluated according to the changes in animal body weight and death.
The tumor volume of each group of mice was measured on different days, and the average value was obtained.

[2] = Hepatomicrosome stability, mouse; details: for Remaining percentage after 30 minutes: Mouse, 2 μM
Method: 1a) With NADPH: 10 μL of 20 mg/mL of hepatomicrosome and 40 μL of 10 mM of NADPH were added to medium. The final concentrations of hepatomicrosome and NADPH were 0.5 mg/mL and 1 mM, respectively.
1b) Without NADPH: 10 μL of 20 mg/mL hepatomicrosome and 40 μL of ultra-pure H2O were added to medium. The final concentration of hepatomicrosome was 0.5 mg/mL.
3) 3) Aliquots of 50 μL from the reaction solutions at 0 minute and 30 minutes were taken. The reaction solutions were stopped by adding 4 volumes of cold acetonitrile and 4 internal standards (IS internal standard, 100 nM of Alprazolam, 200 nM of caffeine, 200 nM of Labetalol, and 2 μM of Ketoprofen) to stop the reaction solution. The samples were centrifuged at 3,220 g for 40 minutes. Aliquots of 100 μL of the supernatants were mixed with 100 μL of ultra-pure H2O. Then, the mixtures were used for LC-MS/MS analysis. All experiments were performed in duplicate. The test results were as follow.

H460 cell line = assay: Cytotoxicity comparison of TH-302 and compound 01 on H460 at different test times; format: cell-based, human; details: for pIC50: Homo sapiens, NCI-H460, 2 h, H460, exposure for 2 hours, air
Excerpt: The cytotoxicity test results of TH-302 and compound 01 on H460 cell line under different test times in the same laboratory, the same operator, and the same experimental conditions.

P-glycoprotein, sequence (P08183 whole entry): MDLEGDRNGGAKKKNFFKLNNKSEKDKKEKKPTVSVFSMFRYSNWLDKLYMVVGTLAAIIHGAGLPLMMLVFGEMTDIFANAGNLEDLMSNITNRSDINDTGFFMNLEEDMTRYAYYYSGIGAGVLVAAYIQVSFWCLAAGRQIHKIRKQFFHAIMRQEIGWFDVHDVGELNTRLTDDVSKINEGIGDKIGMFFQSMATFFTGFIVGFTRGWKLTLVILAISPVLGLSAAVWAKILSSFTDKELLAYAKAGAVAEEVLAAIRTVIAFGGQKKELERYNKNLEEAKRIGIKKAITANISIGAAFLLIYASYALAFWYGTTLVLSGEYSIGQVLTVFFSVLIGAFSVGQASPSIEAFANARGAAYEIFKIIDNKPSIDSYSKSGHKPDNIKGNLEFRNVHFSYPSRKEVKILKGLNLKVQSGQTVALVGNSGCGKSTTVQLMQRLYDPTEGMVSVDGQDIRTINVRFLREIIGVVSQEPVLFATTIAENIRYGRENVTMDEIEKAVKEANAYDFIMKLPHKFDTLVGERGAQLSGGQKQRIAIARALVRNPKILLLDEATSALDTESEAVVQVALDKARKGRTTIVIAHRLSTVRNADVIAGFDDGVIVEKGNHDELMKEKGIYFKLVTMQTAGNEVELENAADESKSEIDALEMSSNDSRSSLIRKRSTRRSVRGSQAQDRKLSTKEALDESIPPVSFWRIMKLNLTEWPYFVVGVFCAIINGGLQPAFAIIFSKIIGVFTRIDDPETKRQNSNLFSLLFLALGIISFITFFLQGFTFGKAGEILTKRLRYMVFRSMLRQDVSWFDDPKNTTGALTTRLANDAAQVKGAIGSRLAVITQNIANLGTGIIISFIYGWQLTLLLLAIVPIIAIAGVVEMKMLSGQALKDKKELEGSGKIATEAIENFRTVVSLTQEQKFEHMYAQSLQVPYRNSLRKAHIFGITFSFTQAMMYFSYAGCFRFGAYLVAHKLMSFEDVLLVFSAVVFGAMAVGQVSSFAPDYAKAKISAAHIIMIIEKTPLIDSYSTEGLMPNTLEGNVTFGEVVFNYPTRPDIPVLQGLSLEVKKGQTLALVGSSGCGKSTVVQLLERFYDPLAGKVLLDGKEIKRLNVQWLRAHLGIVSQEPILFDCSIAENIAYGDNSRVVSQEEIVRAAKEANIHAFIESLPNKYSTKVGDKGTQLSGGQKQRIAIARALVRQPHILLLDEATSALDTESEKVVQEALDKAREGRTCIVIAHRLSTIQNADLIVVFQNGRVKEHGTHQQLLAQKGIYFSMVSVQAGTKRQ

## O=[N+]([O-])c1ccc(C(OP(=O)(N2CC2)N2CC2)C(F)(F)F)c2ccccc12 (stereo not drawn) [Compound 01]
P-glycoprotein; dog, MDCK-MDR1
  Papp A→B at 2 h: 18.6 ×10⁻⁶ cm/s
  Papp B→A at 2 h: 11.9 ×10⁻⁶ cm/s
P-glycoprotein; dog, MDCK-MDR1, Recovery (%) AP-BL, Verapamil 0 μM
  recovery at 2 h: 58.6%
P-glycoprotein; dog, MDCK-MDR1, Recovery (%) AP-BL, Verapamil 100 μM
  recovery at 2 h: 63.4%
P-glycoprotein; dog, MDCK-MDR1, Recovery (%) BL-AP, Verapamil 0 μM
  recovery at 2 h: 58.6%
P-glycoprotein; dog, MDCK-MDR1, Recovery (%) BL-AP, Verapamil 100 μM
  recovery at 2 h: 67.3%
P-glycoprotein; with vs without Verapamil
  P-glycoprotein substrate (experimental conclusion): not P-glycoprotein substrates
H460
  pIC50: 7.00
[1]; GA6201 PDX
  Inhibition of tumor growth compared with ifosfamide (conclusion): obvious advantages in inhibiting tumor growth
[1]; day 0
  Tumor volume: 94.24 mm^3
[1]; day 3
  Tumor volume: 121.79 mm^3
[1]; day 7
  Tumor volume: 123.19 mm^3
[1]; day 10
  Tumor volume: 153.46 mm^3
[1]; day 14
  Tumor volume: 191.17 mm^3
[1]; day 17
  Tumor volume: 219.91 mm^3
[1]; day 21
  Tumor volume: 246.57 mm^3
[1]; day 24
  Tumor volume: 271.72 mm^3
[1]; day 28
  Tumor volume: 280.86 mm^3
[1]; day 31
  Tumor volume: 270.68 mm^3
[1]; day 35
  Tumor volume: 299.31 mm^3
[1]; day 38
  Tumor volume: 277.17 mm^3
[1]; day 42
  Tumor volume: 300.46 mm^3
[1]; day 45
  Tumor volume: 342.08 mm^3
[1]; day 49
  Tumor volume: 287.47 mm^3
[2]; with NADPH
  Remaining percentage after 30 minutes: 102.89%
[2]; without NADPH
  Remaining percentage after 30 minutes: 103.07%
[2]; mice
  Stability in hepatomicrosomes (conclusion): relatively stable
H460 cell line; Time 1
  pIC50: 6.15
  Multiple TH-302/Compound 01: 32.9
H460 cell line; Time 2
  pIC50: 6.52
  Multiple TH-302/Compound 01: 26.7
H460 cell line; Time 3
  pIC50: 6.30
  Multiple TH-302/Compound 01: 6.6
